Results as given in US20260069563A1, “CETOLEIC ACID COMPOSITION” (Epax Norway AS, priority 2022, published 2026).

System: human fibroblasts
Assay: Wound healing model (scratch wound) in human fibroblasts
Type: cell-based
Details: 14 hours after wounding; initial wound area defined as 100%; added to cell culture medium
Description: Preliminary cell studies with human fibroblasts have been performed to test potential health benefits of LCMUFA in skin.
The main objective of the study was to show whether addition of a LCMUFA concentrate (Cetoleic acid concentrate) or DHA to cell culture medium would: • 1) Influence the capacity of the cells to regenerate after damage (so called “wound healing model”), • 2) Influence the production of melanin (skin pigment), • 3) Influence the expression of genes involved in inflammation after induced oxidative stress.
Wound healing model: Treatment arms included addition of DHA or the LCMUFA contrate to the cell culture medium, respectively. The control was cells only added culture medium, no fatty acids. The effect on closing of wound 14 hours after initiation of a wound was measured.
The initial wound area was defined as 100%, then the wound opening was measured after 14 hours to a percentage of the original wound. The reduction was approximately 60% for LC-MUFA and 50% for DHA, respectively.

For `CC/C=C\C/C=C\C/C=C\C/C=C\C/C=C\C/C=C\CCC(=O)O` [DHA, Docosahexaenoic acid], the “reduction of scratch wound area” value was about 50%.
